Measurements from patent US10632125B2, “MTH1 inhibitors for treatment of inflammatory and autoimmune conditions” (THOMAS HELLEDAYS STIFTELSE FÖR MEDICINSK FORSKNING, priority 2014, dated 2020).

Target: MTH1 (Homo sapiens, UniProt P36639)
Experiment: MTH1 enzymatic assay (malachite green, coupled to pyrophosphatase)
Type: biochemical
Settings: dGTP 100 μM, MTH1 6 nM; 96- or 384-well format; read-out: IC50

IC50, < 200 nM:
Cc1ccc(NCCNc2cc(-c3cccc(C)c3C)nc(N)n2)cc1F [Example 448, 6-(2,3-dimethylphenyl)-4-N-{2-[(3-fluoro-4-methylphenyl)amino]ethyl}pyrimidine-2,4-diamine]
Cc1cccc(-c2cc(NCCNc3ccc(Cl)c(Cl)c3)nc(N)n2)c1C [Example 449, 4-N-{2-[(3,4-dichlorophenyl)amino]ethyl}-6-(2,3-dimethylphenyl)pyrimidine-2,4-diamine]
Cc1cccc(-c2cc(NCCNc3ccc(Cl)cn3)nc(N)n2)c1C [Example 450, 4-N-{2-[(5-chloropyridin-2-yl)amino]ethyl}-6-(2,3-dimethylphenyl)pyrimidine-2,4-diamine]
Cc1cccc(-c2cc(NCCNc3ccc(S(N)(=O)=O)cc3)nc(N)n2)c1C [Example 452, 4-[(2-{[2-amino-6-(2,3-dimethylphenyl)pyrimidin-4-yl]amino}ethyl)amino]benzene-1-sulfonamide]
Cc1c(Cl)cccc1-c1cc(NCCc2ccc(Cl)cc2)nc(N)n1 [Example 461, 6-(3-chloro-2-methylphenyl)-4-N-[2-(4-chlorophenyl)ethyl]pyrimidine-2,4-diamine]
CNc1cc(-c2ccsc2)nc(N)n1 [Example 463, 4-N-methyl-6-(thiophen-3-yl)pyrimidine-2,4-diamine]
CNc1cc(-c2cc(C)cs2)nc(N)n1 [Example 464, 4-N-methyl-6-(4-methylthiophen-2-yl)pyrimidine-2,4-diamine]
CNc1cc(-c2ccnn2C)nc(N)n1 [Example 465, 4-N-methyl-6-(1-methyl-1H-pyrazol-5-yl)pyrimidine-2,4-diamine]
Nc1nc(NCCNc2ccc(Br)cn2)cc(-c2cccc(Cl)c2Cl)n1 [Example 466, 4-N-{2-[(5-bromopyridin-2-yl)amino]ethyl}-6-(2,3-dichlorophenyl)pyrimidine-2,4-diamine]
CNc1cc(-c2cc[nH]c2)nc(N)n1 [Example 468, 4-N-methyl-6-(1H-pyrrol-3-yl)pyrimidine-2,4-diamine]
COCC(=O)NCCCCNc1cc(-c2cccc(Cl)c2Cl)nc(N)n1 [Example 469, N-(4-{[2-amino-6-(2,3-dichlorophenyl)pyrimidin-4-yl]amino}butyl)-2-methoxyacetamide]
Nc1nc(NCCCCNC(=O)C(F)(F)F)cc(-c2cccc(Cl)c2Cl)n1 [Example 470, N-(4-{[2-amino-6-(2,3-dichlorophenyl)pyrimidin-4-yl]amino}butyl)-2,2,2-trifluoroacetamide]
CS(=O)(=O)c1ccc(C(=O)NCCCCNc2cc(-c3cccc(Cl)c3Cl)nc(N)n2)cc1 [Example 471, N-(4-{[2-amino-6-(2,3-dichlorophenyl)pyrimidin-4-yl]amino}butyl)-4-methanesulfonylbenzamide]
Nc1nc(NCCCCNC(=O)c2ccno2)cc(-c2cccc(Cl)c2Cl)n1 [Example 472, N-(4-{[2-amino-6-(2,3-dichlorophenyl)pyrimidin-4-yl]amino}butyl)-1,2-oxazole-5-carboxamide]
Nc1nc(NCCCCNC(=O)c2ccc(Cl)c(Cl)c2)cc(-c2cccc(Cl)c2Cl)n1 [Example 473, N-(4-{[2-amino-6-(2,3-dichlorophenyl)pyrimidin-4-yl]amino}butyl)-3,4-dichlorobenzamide]
CC(C)(C)C(=O)NCCCCNc1cc(-c2cccc(Cl)c2Cl)nc(N)n1 [Example 474, N-(4-{[2-amino-6-(2,3-dichlorophenyl)pyrimidin-4-yl]amino}butyl)-2,2-dimethylpropanamide]
CS(=O)(=O)c1ccc(S(=O)(=O)NCCCCNc2cc(-c3cccc(Cl)c3Cl)nc(N)n2)cc1 [Example 475, N-(4-{[2-amino-6-(2,3-dichlorophenyl)pyrimidin-4-yl]amino}butyl)-4-methanesulfonylbenzene-1-sulfonamide]
CNc1cc(-c2ccoc2C)nc(N)n1 [Example 478, 4-N-methyl-6-(2-methylfuran-3-yl)pyrimidine-2,4-diamine]
CNc1cc(-c2ccc(CN3CCCC3)s2)nc(N)n1 [Example 479, 4-N-methyl-6-[5-(pyrrolidin-1-ylmethyl)thiophen-2-yl]pyrimidine-2,4-diamine]
Nc1nc(NCCc2ccc(Cl)cc2)cc(-c2ccccc2CO)n1 [Example 481, [2-(2-amino-6-{[2-(4-chlorophenyl)ethyl]amino}pyrimidin-4-yl)phenyl]methanol]
Cc1c(Cl)cccc1-c1cc(NC2CC2)nc(N)n1 [Example 482, 6-(3-chloro-2-methylphenyl)-4-N-cyclopropylpyrimidine-2,4-diamine]
Cc1c(Cl)cccc1-c1cc(NCCF)nc(N)n1 [Example 483, 6-(3-chloro-2-methylphenyl)-4-N-(2-fluoroethyl)pyrimidine-2,4-diamine]
Cc1cccc(-c2cc(NCCF)nc(N)n2)c1C [Example 484, 6-(2,3-dimethylphenyl)-4-N-(2-fluoroethyl)pyrimidine-2,4-diamine]
CNc1cc(-c2cnn(CCC(N)=O)c2)nc(N)n1 [Example 487, 3-{4-[2-amino-6-(methylamino)pyrimidin-4-yl]-1H-pyrazol-1-yl}propanamide]
COc1cc(C)c(NCCNc2cc(-c3cccc(C)c3C)nc(N)n2)cn1 [Example 490, 6-(2,3-dimethylphenyl)-4-N-{2-[(6-methoxy-4-methylpyridin-3-yl)amino]ethyl}pyrimidine-2,4-diamine]
NC(=O)COc1cccc(-c2cc(NCCc3ccc(Cl)cc3)nc(N)n2)c1 [Example 498, 2-[3-(2-amino-6-{[2-(4-chlorophenyl)ethyl]amino}pyrimidin-4-yl)phenoxy]acetamide]
Cc1cccc(-c2cc(NCCNc3cnccn3)nc(N)n2)c1C [Example 500, 6-(2,3-dimethylphenyl)-4-N-{2-[(pyrazin-2-yl)amino]ethyl}pyrimidine-2,4-diamine]
Cc1cccc(-c2cc(NCCNc3cc(Cl)ncn3)nc(N)n2)c1C [Example 501, 4-N-{2-[(6-chloropyrimidin-4-yl)amino]ethyl}-6-(2,3-dimethylphenyl)pyrimidine-2,4-diamine]
CNc1cc(-c2ccccc2CO)nc(N)n1 [Example 508, {2-[2-amino-6-(methylamino)pyrimidin-4-yl]phenyl}methanol]
Nc1nc(NCCc2ccc(S(N)(=O)=O)cc2)cc(-c2ccccc2CO)n1 [Example 509, 4-[2-({2-amino-6-[2-(hydroxymethyl)phenyl]pyrimidin-4-yl}amino)ethyl]benzene-1-sulfonamide]
Cc1cccc(-c2cc(NCCNc3cc(C(N)=O)ccn3)nc(N)n2)c1C [Example 514, 2-[(2-{[2-amino-6-(2,3-dimethylphenyl)pyrimidin-4-yl]amino}ethyl)amino]pyridine-4-carboxamide]
Cc1c(NC(=O)c2ccc(Cl)cc2O)cccc1-c1cc(NCCc2ccc(S(C)(=O)=O)cc2)nc(N)n1 [Example 516, N-[3-(2-amino-6-{[2-(4-methanesulfonylphenyl)ethyl]amino}pyrimidin-4-yl)-2-methylphenyl]-4-chloro-2-hydroxybenzamide]
Cc1cccc(-c2cc(NCCc3c[nH]c4ccc(O)cc34)nc(N)n2)c1C [Example 517, 3-(2-{[2-amino-6-(2,3-dimethylphenyl)pyrimidin-4-yl]amino}ethyl)-1H-indol-5-ol]
Cc1cccc(-c2cc(NCCc3c[nH]c4ccc(OCc5ccccc5)cc34)nc(N)n2)c1C [Example 518, 4-N-{2-[5-(benzyloxy)-1H-indol-3-yl]ethyl}-6-(2,3-dimethylphenyl)pyrimidine-2,4-diamine]
Cc1cccc(-c2cc(NCCc3c[nH]c4ccc(Br)cc34)nc(N)n2)c1C [Example 519, 4-N-[2-(5-bromo-1H-indol-3-yl)ethyl]-6-(2,3-dimethylphenyl)pyrimidine-2,4-diamine]
COc1ccc2[nH]cc(CCNc3cc(-c4cccc(C)c4C)nc(N)n3)c2c1 [Example 520, 6-(2,3-dimethylphenyl)-4-N-[2-(5-methoxy-1H-indol-3-yl)ethyl]pyrimidine-2,4-diamine]
Cc1cccc(-c2cc(NCCc3c[nH]c4c(C)cccc34)nc(N)n2)c1C [Example 521, 6-(2,3-dimethylphenyl)-4-N-[2-(7-methyl-1H-indol-3-yl)ethyl]pyrimidine-2,4-diamine]
Cc1cccc(-c2cc(NCCc3c[nH]c4c(OCc5ccccc5)cccc34)nc(N)n2)c1C [Example 522, 4-N-{2-[7-(benzyloxy)-1H-indol-3-yl]ethyl}-6-(2,3-dimethylphenyl)pyrimidine-2,4-diamine]
COc1ccc2c(CCNc3cc(-c4cccc(C)c4C)nc(N)n3)c[nH]c2c1 [Example 523, 6-(2,3-dimethylphenyl)-4-N-[2-(6-methoxy-1H-indol-3-yl)ethyl]pyrimidine-2,4-diamine]
CC1CC1Nc1cc(-c2cccc(Cl)c2Cl)nc(N)n1 (centres unmarked) [Example 524, 6-(2,3-dichlorophenyl)-4-N-(2-methylcyclopropyl)pyrimidine-2,4-diamine]
Cc1cccc(-c2cc(NCCNc3ccc(-c4nnn[nH]4)cc3)nc(N)n2)c1C [Example 543, 6-(2,3-dimethylphenyl)-4-N-(2-{[4-(1H-1,2,3,4-tetrazol-5-yl)phenyl]amino}ethyl)pyrimidine-2,4-diamine]
